{"source": "patent US20160120888A1", "about": "“ANTICANCER DRUG” (KTN BIOTEC, INC., priority 2013, published 2016)", "assay_type_in_all_cases": "cell-based", "key": {"[1]": {"system": "human malignant pleural mesothelioma cell lines NCI-H28, NCI-H2052, NCI-H2452, MSTO-211H", "test": "Cell viability assay (MTT), human malignant pleural mesothelioma cell lines", "details": "48 hr treatment; for cell death induction (MTT intensity relative to cells free of drug treatment): FIG. 2 / FIG. 3", "method": "FIG. 2 is a graph showing that diDCP-LA-PI and diDCP-LA-PIe induce cell death of human malignant pleural mesothelioma in a concentration-dependent manner. The cells were treated with a given concentration of diDCP-LA-PI or diDCP-LA-PIe for 48 hr, and subjected to MTT assay.\nFIG. 3 is a graph showing that DO-PI and DP-PI induce the same level of cell death of human malignant pleural mesothelioma in a concentration-dependent manner. The cells were treated with a given concentration of DO-PI or DP-PI for 48 hr, and subjected to MTT assay.\nNCI-H28, NCI-H2052, NCI-H2452, and MSTO-211H which are cell lines of human malignant pleural mesothelioma were used.\nThese cells were purchased from American Type Culture Collection (Manassas, Va., USA). The cells were cultured in Roswell Park Memorial Institute (RPMI)-1640 medium added with 0.003% (w/v) L-glutamine.\n(§1) In all cell cultures, the cells were incubated in a medium added with 10% (v/v) heat-inactivated bovine serum, penicillin (final concentration, 100 U/ml) and streptomycin (final concentration, 0.1 mg/ml) in a humid environment under 5% CO2 and 95% air at 37° C.\n(§2) The cell viability was evaluated by an established method using 3-(4,5-dimethyl-2-thiazolyl)-2,5-diphenyl-2H-tetrazolium bromide (MTT)."}, "[2]": {"system": "Lu-65 human lung cancer cell line", "test": "Cell viability assay (MTT), Lu-65 lung cancer cells", "details": "human lung cancer cell (Lu65), 48 hr treatment, FIG. 4A", "method": "(§3) FIG. 4 is a graph showing that diDCP-LA-PI and diDCP-LA-PIe induce cell death of (A) human lung cancer cell (Lu65), (B) gastric cancer cell (MKN28), (C) breast cancer cell (MCF-7) in a concentration-dependent manner. The cells were treated with a given concentration of diDCP-LA-PI or diDCP-LA-PIe for 48 hr, and subjected to MTT assay.\nLu-65 human lung cancer cell line was purchased from Health Science Research Resources Bank (Osaka, Japan), and cultured in RPMI-1640 medium.\nas §1, §2"}, "[3]": {"system": "MKN28 human gastric cancer cell line", "test": "Cell viability assay (MTT), MKN28 gastric cancer cells", "details": "48 hr treatment, FIG. 4B", "method": "as §3\nMKN28 human gastric cancer cell line was provided by Dr. Tatematsu (Nagoya University, Japan), and cultured in RPMI-1640 medium.\nas §1, §2"}, "[4]": {"system": "MCF-7 human breast cancer cell line", "test": "Cell viability assay (MTT), MCF-7 breast cancer cells", "details": "breast cancer cell (MCF-7), 48 hr treatment, FIG. 4C", "method": "as §3\nMCF-7 human breast cancer cell line was obtained from RIKEN cell bank (Ibaraki, Japan) and cultured in Dulbecco's modified Eagle's medium (DMEM).\nas §1, §2"}}}
{"compound": "1,2-O-bis-[8-{2-(2-pentyl-cyclopropylmethyl)-cyclopropyl}-octanoyl]-sn-glycerol-3-phosphatidyl-D-inositol [diDCP-LA-PI]", "values": [{"measurement": "cell death induction (MTT intensity relative to cells free of drug treatment)", "setting": "[1]", "result": "induce cell death of human malignant pleural mesothelioma cells in a concentration dependent manner"}, {"measurement": "cell death induction (MTT intensity relative to cells free of drug treatment)", "setting": "[2]", "result": "induce cell death of human lung cancer, gastric cancer and breast cancer in a concentration dependent manner"}, {"measurement": "cell death induction (MTT intensity relative to cells free of drug treatment)", "setting": "[3]", "result": "induce cell death of human lung cancer, gastric cancer and breast cancer in a concentration dependent manner"}, {"measurement": "cell death induction (MTT intensity relative to cells free of drug treatment)", "setting": "[4]", "result": "induce cell death of human lung cancer, gastric cancer and breast cancer in a concentration dependent manner"}]}
{"compound": "1,2-O-bis-[8-{2-(2-pentyl-cyclopropylmethyl)-cyclopropyl}-octanoyl]-sn-glycerol-3-phosphatidyl-L-1-inositol [diDCP-LA-PIe]", "values": [{"measurement": "cell death induction (MTT intensity relative to cells free of drug treatment)", "setting": "[1]", "result": "induce cell death of human malignant pleural mesothelioma cells in a concentration dependent manner"}, {"measurement": "effectiveness of cell death induction compared with diDCP-LA-PI", "setting": "[1]; human malignant pleural mesothelioma cells, FIG. 2", "result": "more effective"}, {"measurement": "cell death induction (MTT intensity relative to cells free of drug treatment)", "setting": "[2]", "result": "induce cell death of human lung cancer, gastric cancer and breast cancer in a concentration dependent manner"}, {"measurement": "effectiveness of cell death induction compared with diDCP-LA-PI", "setting": "[2]", "result": "more effective"}, {"measurement": "cell death induction (MTT intensity relative to cells free of drug treatment)", "setting": "[3]", "result": "induce cell death of human lung cancer, gastric cancer and breast cancer in a concentration dependent manner"}, {"measurement": "effectiveness of cell death induction compared with diDCP-LA-PI", "setting": "[3]", "result": "more effective"}, {"measurement": "cell death induction (MTT intensity relative to cells free of drug treatment)", "setting": "[4]", "result": "induce cell death of human lung cancer, gastric cancer and breast cancer in a concentration dependent manner"}, {"measurement": "effectiveness of cell death induction compared with diDCP-LA-PI", "setting": "[4]", "result": "more effective"}]}
{"compound": "CCCCCCCC/C=C\\CCCCCCCC(=O)OC[C@H](COP(=O)(O)OC1C(O)C(O)C(O)[C@@H](O)C1O)OC(=O)CCCCCCC/C=C\\CCCCCCCC", "note": "(some centres unmarked) [DO-PI, 1,2-dioleoyl-sn-glycerol-3-phospho-(1′-myo-inositol)]", "values": [{"measurement": "cell death induction (MTT intensity relative to cells free of drug treatment)", "setting": "[1]", "result": "induce the same level of cell death of human malignant pleural mesothelioma cells in a concentration dependent manner"}]}
{"compound": "CCCCCCCCCCCCCCCC(=O)OC[C@H](COP(=O)(O)O[C@@H]1[C@H](O)[C@H](O)[C@@H](O)[C@H](O)[C@H]1O)OC(=O)CCCCCCCCCCCCCCC", "note": "[DP-PI, 1,2-dipalmitoyl-sn-glycerol-3-phospho-(1′-myo-inositol)]", "values": [{"measurement": "cell death induction (MTT intensity relative to cells free of drug treatment)", "setting": "[1]", "result": "induce the same level of cell death of human malignant pleural mesothelioma cells in a concentration dependent manner"}]}
